Measurements taken from a melting point compilation (Tetko et al.).

| Structure (SMILES) | melting point [°C] |
| --- | --- |
| O=C(O)c1ccc(OCC(F)F)nc1 | 158 to 160 |
| CC1CCC(NC(=O)CN2CCNCC2)CC1 (configuration not stated) | 120 to 122 |
| N#Cc1ccc(C(=O)O)[nH]1 | 239 to 241 |
| COC(=O)c1cc(S(=O)(=O)Cl)ccc1Cl | 79 to 81 |
| Nc1ncnc2ccccc12 | 264 to 266 |
| CC1=NN(c2ccc(F)cc2)C(=O)C1 | 148 to 150 |
| CC(C)NC(=O)C1CCCC(N)C1 (configuration not stated) | 126 to 128 |
| O=C(O)c1cn(CCOc2ccccc2Cl)c2ccccc12 | 186 to 188 |
| N=C(N)c1ccc(N2CCCC2)cn1 | 209 to 211 |
| N#CC(N)c1cnn(-c2ccccc2)c1 (configuration not stated) | 98 to 100 |
| NC(Cc1ccccn1)=NO | 105 to 107 |
| Cc1ccc(S(=O)(=O)Cl)c(Br)c1 | 70 to 72 |
| O=C(O)c1ccc(S(=O)(=O)Nc2ccccc2Cl)cc1 | 111 to 113 |
| CC(C)(C)OC(=O)NC1CCCCCC1O (configuration not stated) | 85 to 87 |
| CS(=O)(=O)Nc1cccc(I)c1 | 119 to 121 |
| O=C1COc2cc(OCc3ccccc3)ccc21 | 99 to 101 |
| NC(=S)CO | 54 to 56 |
| Fc1ccc(-c2cnc(CBr)o2)cc1 | 30 to 41 |
| CCc1ccc(C(=O)c2cccc(S(C)(=O)=O)c2)cc1 | 97 to 99 |
| CC(C)(C)OC(=O)N1CCCC(COS(C)(=O)=O)C1 (configuration not stated) | 76 to 78 |
| CC(Nc1ccccn1)c1ccco1 (configuration not stated) | 136 to 138 |
| O=c1cc(CCl)c2cc(O)c(O)cc2o1 | 178 to 180 |
| CNS(=O)(=O)c1ccc(C)c(C(=O)O)c1 | 170 to 172 |
| CC(C)(C)Nc1cc(C(=O)O)c(N)cc1F | 199 to 201 |

| Structure (SMILES) | melting point [°C] |
| --- | --- |
| CNC1CCN(c2ccc(Cl)cc2)CC1 | 49 to 51 |
| COC(=O)c1ccc(OC)cc1N | 76 to 78 |
| O=[N+]([O-])c1cn[nH]c1C1CC1 | 95 to 97 |
| NC(=O)C1(Br)CCC1 | 150 to 152 |
| CCCC(=O)Nc1cccc(CN)c1 | 54 to 56 |
| CN(C)C(=O)CSc1ccccc1C(=O)O | < 17 |
| COc1c(C(=O)O)cc(Cl)cc1[N+](=O)[O-] | 161 to 163 |
| NS(=O)(=O)c1ccc2c(c1)NCC2 | 164 to 166 |
| O=C(O)c1cnc2onc(C3CC3)c2c1 | 206 to 208 |
| N#Cc1cccc(Cc2cnc(N)s2)c1 | 143 to 145 |
| Cc1ccc(-c2nc(C)c(C(C)O)s2)cc1 (configuration not stated) | 111 to 113 |
| CN(C)Cc1nnc(S)o1 | 202 to 204 |
| Cc1cc(C(=O)O)c(N)c([N+](=O)[O-])c1 | 249 to 251 |
| Cc1sc2[nH]c(CCC(=O)O)nc(=O)c2c1C | 249 to 251 |
| COc1ccc(COCc2cccc(N)c2)cc1 | 55 to 57 |
| COc1ccc(CCC(=O)O)cc1N | 121 to 123 |
| Nc1ccc(N2CCN(S(=O)(=O)C(F)F)CC2)cc1 | 110 to 112 |
| O=C(CCl)NC1CCN(Cc2ccccc2)CC1 | 117 to 119 |
| CC1Oc2ccccc2NC1=O (configuration not stated) | 142 to 144 |
| O=C(O)c1cnc2scc(-c3ccccc3)n2c1=O | 244 to 246 |
| Cc1ccc2nc(-c3ccc(N=C=S)cc3)sc2c1 | 243 to 245 |
| O=C(O)C1CCN(C(=O)c2ccc(C(F)(F)F)cc2)CC1 | 162 to 164 |
| NC(=O)c1ccc(Br)c(C(F)(F)F)c1 | 138 to 140 |
| O=C(O)CNC(=O)c1cccc(Cl)c1 | 98 to 100 |

| Structure (SMILES) | melting point [°C] |
| --- | --- |
| Cc1c(C(=O)O)cnn1CCOC1CCCCO1 (configuration not stated) | 139 to 141 |
| O=C(O)CS(=O)(=O)c1ccc(Br)cc1 | 145 to 147 |
| Cc1nc(NC(=O)NN)no1 | 288 to 290 |
| O=C(O)c1ccccc1NS(=O)(=O)c1cccc(C(F)(F)F)c1 | 157 to 159 |
| Cc1nc2cc(C(F)(F)F)ccc2s1 | 63 to 65 |
| Nc1cc(Cl)c(Cl)cn1 | 140 to 142 |
| Cc1ccc(S(=O)(=O)Nc2ccc(Cl)cc2)cc1N | 104 to 106 |
| Cc1sc(N)c(C(N)=O)c1C | 179 to 181 |
| O=C1CNC(=O)c2ccccc2N1 | 324 to 326 |
| Cc1cc(C)n2nc(O)cc2n1 | 241 to 243 |
| O=c1[nH]c(S)nn1-c1ccccc1 | 187 to 189 |
| NS(=O)(=O)Cc1cccnc1 | 154 to 156 |
| NC(=O)Cn1cc(N)cn1 | 159 to 161 |
| Cn1c(=O)[nH]c(=O)c2cc(C(=O)O)cnc21 | 316 to 318 |
| Cn1c(NN)nnc1-c1ccccc1 | 147 to 149 |
| Cc1oc2cc(O)ccc2c(=O)c1Oc1ccccc1 | 235 to 237 |
| CC(C)c1nnn[nH]1 | 104 to 106 |
| O=c1[nH]c(-c2ccccn2)no1 | 198 to 200 |
| CS(=O)(=O)c1ccc(Oc2ccc(N)cc2)cc1 | 152 to 154 |
| Cc1c(N)cccc1COc1ccccc1 | 94 to 96 |
| O=C1OC(=O)c2cc(F)c(F)cc21 | 94 to 96 |
| O=C(O)c1csc(-c2cc(Br)cs2)n1 | 229 to 231 |
| NNc1nc2cc(Cl)ccc2s1 | 209 to 211 |
| O=C(O)c1sccc1S(=O)(=O)N1CCCCC1CCO (configuration not stated) | 121 to 123 |
